According to patent publication US9907800B2, “Kinase inhibitors and method of treating cancer” (University Health Network, priority 2010, dated 2018):
Where a name gives a salt, the structure may show the parent alone.

Legend:
Assay type in all cases: biochemical
Aurora B = Aurora B (Homo sapiens (Human), UniProt Q96GD4); experiment: Aurora B inhibition assay (Z-Lyte); conditions: read-out: Aurora B IC50 Ranges
FLT3 = FLT3 (Homo sapiens (Human), UniProt P36888); experiment: FLT3 inhibition assay (Z-Lyte); conditions: read-out: Flt3 IC50 Ranges
human PLK4 = human PLK4 (Homo sapiens (Human), UniProt O00444); experiment: PLK4 inhibition assay (indirect ELISA); conditions: read-out: PLK4 IC50 Ranges
human PLK4, sequence (O00444 1-391): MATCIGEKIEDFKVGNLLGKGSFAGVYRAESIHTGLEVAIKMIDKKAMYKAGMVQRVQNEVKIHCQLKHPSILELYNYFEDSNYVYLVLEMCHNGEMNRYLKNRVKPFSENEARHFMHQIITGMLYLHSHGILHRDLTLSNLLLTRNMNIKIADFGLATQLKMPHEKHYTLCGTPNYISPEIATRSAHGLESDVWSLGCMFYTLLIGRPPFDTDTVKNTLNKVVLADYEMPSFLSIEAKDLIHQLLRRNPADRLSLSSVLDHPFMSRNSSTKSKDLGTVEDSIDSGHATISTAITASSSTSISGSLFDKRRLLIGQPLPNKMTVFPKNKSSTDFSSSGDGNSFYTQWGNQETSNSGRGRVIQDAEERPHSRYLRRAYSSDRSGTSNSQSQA

FLT3, sequence (P36888 27-993): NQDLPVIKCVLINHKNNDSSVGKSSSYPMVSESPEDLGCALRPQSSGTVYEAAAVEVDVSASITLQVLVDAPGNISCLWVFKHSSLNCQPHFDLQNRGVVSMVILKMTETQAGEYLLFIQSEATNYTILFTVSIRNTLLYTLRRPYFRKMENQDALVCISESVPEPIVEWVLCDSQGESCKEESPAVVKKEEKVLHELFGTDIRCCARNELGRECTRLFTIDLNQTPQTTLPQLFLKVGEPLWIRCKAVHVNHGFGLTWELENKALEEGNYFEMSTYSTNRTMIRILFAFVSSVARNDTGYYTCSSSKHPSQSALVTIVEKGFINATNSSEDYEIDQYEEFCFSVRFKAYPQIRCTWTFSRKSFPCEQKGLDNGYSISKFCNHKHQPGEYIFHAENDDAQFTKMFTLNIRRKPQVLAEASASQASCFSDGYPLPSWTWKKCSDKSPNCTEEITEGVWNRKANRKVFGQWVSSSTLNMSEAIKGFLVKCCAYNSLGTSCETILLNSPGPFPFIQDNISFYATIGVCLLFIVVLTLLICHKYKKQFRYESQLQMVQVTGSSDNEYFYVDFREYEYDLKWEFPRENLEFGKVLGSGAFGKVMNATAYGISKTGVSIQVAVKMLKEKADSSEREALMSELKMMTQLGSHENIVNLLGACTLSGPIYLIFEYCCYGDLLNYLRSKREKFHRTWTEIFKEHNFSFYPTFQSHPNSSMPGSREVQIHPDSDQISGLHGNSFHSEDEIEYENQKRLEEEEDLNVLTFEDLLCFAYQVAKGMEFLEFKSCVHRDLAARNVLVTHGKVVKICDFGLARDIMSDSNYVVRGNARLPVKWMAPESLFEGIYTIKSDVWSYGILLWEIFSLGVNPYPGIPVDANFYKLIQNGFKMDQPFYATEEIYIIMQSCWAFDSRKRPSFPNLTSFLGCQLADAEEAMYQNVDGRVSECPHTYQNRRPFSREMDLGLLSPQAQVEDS
Aurora B, sequence (Q96GD4 whole entry): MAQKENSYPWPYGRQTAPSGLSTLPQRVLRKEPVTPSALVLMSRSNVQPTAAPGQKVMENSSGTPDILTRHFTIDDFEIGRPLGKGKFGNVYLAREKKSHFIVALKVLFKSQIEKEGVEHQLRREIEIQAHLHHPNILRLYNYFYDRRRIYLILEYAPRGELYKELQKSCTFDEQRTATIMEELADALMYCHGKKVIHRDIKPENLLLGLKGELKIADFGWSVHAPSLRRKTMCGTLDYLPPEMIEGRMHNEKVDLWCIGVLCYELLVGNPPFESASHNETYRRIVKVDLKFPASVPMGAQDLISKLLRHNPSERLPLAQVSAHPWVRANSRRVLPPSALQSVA

IC50 (FLT3)	SMILES	IC50 (Aurora B)	IC50 (human PLK4)
> 1000 nM	COc1ccc2c(c1)[C@]1(C[C@H]1c1ccc3c(-c4cccc(C(=O)N5CCN(C)CC5)c4)n[nH]c3c1)C(=O)N2 (relative stereo) [Example A149, (1R*,2S*)-5′-methoxy-2-(3-(3-(4-methylpiperazine-1-carbonyl)phenyl)-1H-indazol-6-yl)spiro[cyclopropane-1,3′-indolin]-2′-one 2,2,2-trifluoroacetate]	> 1000 nM	< 100 nM
> 1000 nM	CCc1ccc2c(c1)[C@]1(C[C@H]1c1ccc3c(-c4cccc(CN5CCOCC5)c4)n[nH]c3c1)C(=O)N2 (relative stereo) [Example A141, (1R*,2S*)-5′-ethyl-2-(3-(3-(morpholinomethyl)phenyl)-1H-indazol-6-yl)spiro[cyclopropane-1,3′-indolin]-2′-one 2,2,2-trifluoroacetate]	> 1000 nM	> 1000 nM
100 to 1000 nM	COc1ccc2c(c1)[C@]1(C[C@H]1c1ccc3c(-c4ccc(N5CC[C@H](N(C)C)C5)cc4)n[nH]c3c1)C(=O)N2 [Example A128, (1R,2S)-2-(3-(4-((S)-3-(dimethylamino)pyrrolidin-1-yl)phenyl)-1H-indazol-6-yl)-5′-methoxyspiro[cyclopropane-1,3′-indolin]-2′-one 2,2,2-trifluoroacetate]		< 100 nM
100 to 1000 nM	COc1ccc2c(c1)[C@]1(C[C@H]1c1ccc3c(-c4ccc(N5CCN(C6CCCC6)CC5)cc4)n[nH]c3c1)C(=O)N2 [Example A192, (1R,2S)-2-(3-(4-(4-cyclopentylpiperazin-1-yl)phenyl)-1H-indazol-6-yl)-5′-methoxyspiro[cyclopropane-1,3′-indolin]-2′-one 2,2,2-trifluoroacetate]	< 100 nM	< 100 nM
100 to 1000 nM	COc1ccc2c(c1)[C@]1(C[C@H]1c1ccc3c(/C=C/c4ccc(CN5C[C@@H](C)O[C@@H](C)C5)cc4)n[nH]c3c1)C(=O)N2 [Example A185]		
> 1000 nM	COc1ccc2c(c1)[C@]1(C[C@H]1c1ccc3c(-c4ccc(CO)cc4)n[nH]c3c1)C(=O)N2 (relative stereo) [Example A45, (1R*,2S*)-2-(3-(4-(hydroxymethyl)phenyl)-1H-indazol-6-yl)-5′-methoxyspiro[cyclopropane-1,3′-indolin]-2′-one 2,2,2-trifluoroacetate]	100 to 1000 nM	< 100 nM
< 100 nM	COc1ccc2c(c1)[C@]1(C[C@H]1c1ccc3c(-c4ccc(N5CCN(C(C)C)CC5)cc4)n[nH]c3c1)C(=O)N2 [Example A97, (1R,2S)-2-(3-(4-(4-isopropylpiperazin-1-yl)phenyl)-1H-indazol-6-yl)-5′-methoxyspiro[cyclopropane-1,3′-indolin]-2′-one 2,2,2-trifluoroacetate]		
< 100 nM	COc1ccc2c(c1)[C@]1(C[C@H]1c1ccc3c(/C=C/c4ccc(N5CCN(C)CC5)cc4)n[nH]c3c1)C(=O)N2 [Example A175, (1R,2S)-(E)-5′-methoxy-2-(3-(4-(4-methylpiperazin-1-yl)styryl)-1H-indazol-6-yl)spiro[cyclopropane-1,3′-indolin]-2′-one 2,2,2-trifluoroacetate]	< 100 nM	< 100 nM
	O=C1Nc2ccccc2[C@]12C[C@H]2c1ccc2c(/C=C/c3ccc(OCCN4CCOCC4)cc3)n[nH]c2c1 [Example A204, (1R,2S)-(E)-2-(3-(4-(2-morpholinoethoxy)styryl)-1H-indazol-6-yl)spiro[cyclopropane-1,3′-indolin]-2′-one 2,2,2-trifluoroacetate]	< 100 nM	< 100 nM
	COc1ccc2c(c1)[C@@]1(C[C@@H]1c1ccc3c(-c4ccc(N5CCNCC5)cc4)n[nH]c3c1)C(=O)N2 [Example A50, (1S,2R)-5′-methoxy-2-(3-(4-(piperazin-1-yl)phenyl)-1H-indazol-6-yl)spiro[cyclopropane-1,3′-indolin]-2′-one 2,2,2-trifluoroacetate]	< 100 nM	< 100 nM
	COc1ccc2c(c1)[C@]1(C[C@H]1c1ccc3c(/C=C/c4ccc(OCCN5CCOCC5)cc4)n[nH]c3c1)C(=O)N2 [Example A194, (1R,2S)-(E)-5′-methoxy-2-(3-(4-(2-morpholinoethoxy)styryl)-1H-indazol-6-yl)spiro[cyclopropane-1,3′-indolin]-2′-one 2,2,2-trifluoroacetate]	< 100 nM	< 100 nM
	CN1CCc2ccc(/C=C/c3n[nH]c4cc([C@@H]5C[C@@]56C(=O)Nc5ccccc56)ccc34)cc2C1 [Example A65, (1R,2S)-2-(3-((E)-2-(2-methyl-1,2,3,4-tetrahydroisoquinolin-7-yl)vinyl)-1H-indazol-6-yl)spiro[cyclopropane-1,3′-indolin]-2′-one 2,2,2-trifluoroacetate salt]	< 100 nM	< 100 nM
	COc1ccc2c(c1)[C@]1(C[C@H]1c1ccc3c(/C=C/c4csc(CN(C)C)c4)n[nH]c3c1)C(=O)N2 (relative stereo) [Example A181, (1R,2S)-2-(3-((E)-2-(5-((dimethylamino)methyl)thiophen-3-yl)vinyl-1H-indazol-6-yl)-5′-methoxyspiro[cyclopropane-1,3′-indolin]-2′-one 2,2,2-trifluoro acetate]	< 100 nM	< 100 nM
	COc1ccc2c(c1)[C@]1(C[C@H]1c1ccc3c(/C=C/c4cccc(CN(C)C)c4)n[nH]c3c1)C(=O)N2 (relative stereo) [Example A135, (1R*,2S*)-2-(3-(3-((dimethylamino)methyl)styryl-1H-indazol-6-yl)-5′-methoxyspiro[cyclopropane-1,3′-indolin]-2′-one 2,2,2-trifluoroacetate]	< 100 nM	< 100 nM
	CCc1ccc2c(c1)[C@]1(C[C@H]1c1ccc3c(-c4ccc(N5CCN(C)CC5)cc4)n[nH]c3c1)C(=O)N2 (relative stereo) [Example A142, (1R*,2S*)-5′-ethyl-2-(3-(4-(4-methylpiperazin-1-yl)phenyl)-1H-indazol-6-yl)spiro[cyclopropane-1,3′-indolin]-2′-one 2,2,2-trifluoroacetate]	< 100 nM	< 100 nM
	O=C1Nc2ccccc2[C@]12C[C@H]2c1ccc2c(/C=C/c3ccc(N4CCNCC4)cc3)n[nH]c2c1 [Example A92, (1R,2S)-(E)-2-(3-(4-(piperazin-1-yl)styryl)-1H-indazol-6-yl)spiro[cyclopropane-1,3′-indolin]-2′-one 2,2,2-trifluoroacetate]	< 100 nM	< 100 nM
	COc1ccc2c(c1)[C@]1(C[C@H]1c1ccc3c(/C=C/c4ccc(CN5CCCOCC5)cc4)n[nH]c3c1)C(=O)N2 [Example A73, (1R,2S)-(E)-2-(3-(4-((1,4-oxazepan-4-yl)methyl)styryl)-1H-indazol-6-yl)-5′-methoxyspiro[cyclopropane-1,3′-indolin]-2′-one 2,2,2-trifluoroacetate salt]	< 100 nM	< 100 nM
	COc1ccc2c(c1)[C@]1(C[C@H]1c1ccc3c(/C=C/c4ccc(CN5CCOCC5)c(F)c4)n[nH]c3c1)C(=O)N2 [Example A199, (1R,2S)-(E)-2-(3-(3-fluoro-4-(morpholinomethyl)styryl)-1H-indazol-6-yl)-5′-methoxyspiro[cyclopropane-1,3′-indolin]-2′-one 2,2,2-trifluoroacetate]	< 100 nM	< 100 nM

SMILES	IC50 (FLT3)	IC50 (Aurora B)	IC50 (human PLK4)
COc1ccc2c(c1)[C@]1(C[C@H]1c1ccc3c(-c4cccc(N5CCNCC5)c4)n[nH]c3c1)C(=O)N2 (relative stereo) [Example A47, (1R*,2S*)-5′-methoxy-2-(3-(3-(piperazin-1-yl)phenyl)-1H-indazol-6-yl)spiro[cyclopropane-1,3′-indolin]-2′-one 2,2,2-trifluoroacetate]	> 1000 nM	100 to 1000 nM	< 100 nM
COc1ccc2c(c1)[C@]1(C[C@H]1c1ccc3c(-c4ccc(N5C[C@@H](C)N[C@@H](C)C5)cc4)n[nH]c3c1)C(=O)N2 [Example A126, (1R,2S)-2-(3-(4-(cis-3,5-dimethylpiperazin-1-yl)phenyl)-1H-indazol-6-yl)-5′-methoxyspiro[cyclopropane-1,3′-indolin]-2′-one 2,2,2-trifluoroacetate]	100 to 1000 nM	< 100 nM	< 100 nM
CCN1CCN(c2ccc(-c3n[nH]c4cc([C@@H]5C[C@@]56C(=O)Nc5ccc(OC)cc56)ccc34)cc2)CC1 [Example A99, (1R,2S)-2-(3-(4-(4-ethylpiperazin-1-yl)phenyl)-1H-indazol-6-yl)-5′-methoxyspiro[cyclopropane-1,3′-indolin]-2′-one 2,2,2-trifluoroacetate]	< 100 nM	< 100 nM	< 100 nM
COc1ccc2c(c1)[C@]1(C[C@H]1c1ccc3c(/C=C/c4cccc(CN5CCOCC5)c4)n[nH]c3c1)C(=O)N2 [Example A132, (1R,2S)-5′-methoxy-2-(3-(3-(morpholinomethyl)styryl)-1H-indazol-6-yl)spiro[cyclopropane-1,3′-indolin]-2′-one 2,2,2-trifluoroacetate]	< 100 nM		
COCCN1C(=O)[C@@]2(C[C@H]2c2ccc3c(/C=C/c4ccc(CN(C)C)cc4)n[nH]c3c2)c2ccccc21 [Example A131, (1R,2S)-(E)-2-(3-(4-((dimethylamino)methyl)styryl)-1H-indazol-6-yl)-1′-(2-methoxyethyl)spiro[cyclopropane-1,3′-indolin]-2′-one 2,2,2-trifluoroacetate]	> 1000 nM	< 100 nM	< 100 nM
COc1ccc2c(c1)[C@]1(C[C@H]1c1ccc3c(/C=C/c4cccc(CN(C)C)c4)n[nH]c3c1)C(=O)N2 [Example A134, (1R,2S)-2-(3-(3-((dimethylamino)methyl)styryl)-1H-indazol-6-yl)-5′-methoxyspiro[cyclopropane-1,3′-indolin]-2′-one 2,2,2-trifluoroacetate]	< 100 nM		
COc1ccc2c(c1)[C@@]1(C[C@@H]1c1ccc3c(-c4ccc(N5CCN(C)CC5)nc4)n[nH]c3c1)C(=O)N2 (stereo in doubt) [Example A16, (1S,2R)-5′-methoxy-2-(3-(6-(4-methylpiperazin-1-yl)pyridin-3-yl)-1H-indazol-6-yl)spiro[cyclopropane-1,3′-indolin]-2′-one]	< 100 nM	< 100 nM	< 100 nM
